# Laboratory results from ChEMBL document CHEMBL5126546, “Advancements in the development of multi-target directed ligands for the treatment of Alzheimer's disease” (Bioorg Med Chem, 2022).
# Tests used:
# [1] = target: T1, Amyloid-beta precursor protein (Homo sapiens, UniProt P05067); experiment: Inhibition of amyloid beta (1 to 42) (unknown origin) self aggregation incubated for 24 hrs by Thioflavin T based fluorometric assay
# Acetylcholinesterase [2] = target: T2, Acetylcholinesterase (Homo sapiens, UniProt P22303); experiment: Inhibition of human AChE using acetylthiocholine iodide as substrate preincubated for 6 mins followed by substrate addition and measured for 12 mins by DTNB reagent based Ellman's method
# T2 sequence (P22303 whole entry): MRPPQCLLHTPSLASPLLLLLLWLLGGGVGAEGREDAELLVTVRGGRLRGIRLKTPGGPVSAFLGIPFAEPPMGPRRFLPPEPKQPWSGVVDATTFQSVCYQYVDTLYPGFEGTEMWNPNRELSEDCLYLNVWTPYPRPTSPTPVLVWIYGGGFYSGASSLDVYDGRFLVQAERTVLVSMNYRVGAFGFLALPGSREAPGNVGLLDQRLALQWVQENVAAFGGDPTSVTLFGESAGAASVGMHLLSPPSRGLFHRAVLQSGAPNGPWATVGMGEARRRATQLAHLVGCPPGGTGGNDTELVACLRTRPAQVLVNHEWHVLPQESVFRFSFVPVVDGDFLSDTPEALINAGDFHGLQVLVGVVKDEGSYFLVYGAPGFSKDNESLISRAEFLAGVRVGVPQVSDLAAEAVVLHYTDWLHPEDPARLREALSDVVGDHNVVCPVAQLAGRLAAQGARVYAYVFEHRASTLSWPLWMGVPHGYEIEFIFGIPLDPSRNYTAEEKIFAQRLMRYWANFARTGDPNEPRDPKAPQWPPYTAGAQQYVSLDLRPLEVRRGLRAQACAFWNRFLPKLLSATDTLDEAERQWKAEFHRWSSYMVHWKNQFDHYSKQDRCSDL
# Cholinesterase [3] = target: T3, Cholinesterase (Homo sapiens, UniProt P06276); experiment: Inhibition of human BuChE using butyrylthiocholine iodide as substrate at 10 uM preincubated for 6 mins followed by substrate addition and measured for 12 mins by DTNB reagent based Ellman's method; conditions: time 18.0 min
# T3 sequence (P06276 whole entry): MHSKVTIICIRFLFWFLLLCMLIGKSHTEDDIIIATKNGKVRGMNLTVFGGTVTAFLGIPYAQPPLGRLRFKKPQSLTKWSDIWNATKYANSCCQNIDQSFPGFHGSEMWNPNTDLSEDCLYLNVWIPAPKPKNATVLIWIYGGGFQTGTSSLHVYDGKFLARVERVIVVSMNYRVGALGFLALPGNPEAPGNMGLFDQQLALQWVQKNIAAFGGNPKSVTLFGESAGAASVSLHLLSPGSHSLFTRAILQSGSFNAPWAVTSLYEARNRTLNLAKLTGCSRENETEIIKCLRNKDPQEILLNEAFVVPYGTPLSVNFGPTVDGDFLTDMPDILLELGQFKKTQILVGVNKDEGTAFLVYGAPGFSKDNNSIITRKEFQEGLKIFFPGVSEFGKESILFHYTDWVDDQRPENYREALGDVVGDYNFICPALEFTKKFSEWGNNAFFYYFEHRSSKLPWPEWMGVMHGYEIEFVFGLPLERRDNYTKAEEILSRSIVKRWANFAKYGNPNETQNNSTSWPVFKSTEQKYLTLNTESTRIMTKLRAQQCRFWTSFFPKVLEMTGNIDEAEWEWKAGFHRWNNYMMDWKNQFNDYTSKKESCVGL
# Beta-secretase 1 [4] = target: T4, Beta-secretase 1 (Homo sapiens, UniProt P56817); experiment: Inhibition of human BACE-1 using Rh-EVNLDAEFK-quencher as peptide substrate incubated for 1 hr in dark by FRET assay
# T4 sequence (P56817 whole entry): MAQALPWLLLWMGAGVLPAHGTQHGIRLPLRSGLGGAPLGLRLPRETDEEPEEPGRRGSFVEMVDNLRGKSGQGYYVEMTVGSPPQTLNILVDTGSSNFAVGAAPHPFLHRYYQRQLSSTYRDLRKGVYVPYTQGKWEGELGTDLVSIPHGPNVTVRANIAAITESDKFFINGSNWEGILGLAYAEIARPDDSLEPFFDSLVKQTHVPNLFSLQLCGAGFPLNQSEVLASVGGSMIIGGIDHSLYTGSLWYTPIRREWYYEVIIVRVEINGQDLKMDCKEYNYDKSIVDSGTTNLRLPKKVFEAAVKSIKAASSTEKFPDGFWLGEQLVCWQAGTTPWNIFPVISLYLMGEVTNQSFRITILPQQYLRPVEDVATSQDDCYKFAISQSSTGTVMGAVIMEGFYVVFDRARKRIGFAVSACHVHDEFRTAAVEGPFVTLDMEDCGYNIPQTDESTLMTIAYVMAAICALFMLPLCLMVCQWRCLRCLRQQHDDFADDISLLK
# Acetylcholinesterase [5] = target: T5, Acetylcholinesterase (Electrophorus electricus, UniProt O42275); experiment: Inhibition of Electrophorus electricus AChE using acetylthiocholine iodide as substrate preincubated for 5 mins followed by substrate addition and measured for 2 mins by spectrophotometric based Ellman's method
# T5 sequence (O42275 whole entry): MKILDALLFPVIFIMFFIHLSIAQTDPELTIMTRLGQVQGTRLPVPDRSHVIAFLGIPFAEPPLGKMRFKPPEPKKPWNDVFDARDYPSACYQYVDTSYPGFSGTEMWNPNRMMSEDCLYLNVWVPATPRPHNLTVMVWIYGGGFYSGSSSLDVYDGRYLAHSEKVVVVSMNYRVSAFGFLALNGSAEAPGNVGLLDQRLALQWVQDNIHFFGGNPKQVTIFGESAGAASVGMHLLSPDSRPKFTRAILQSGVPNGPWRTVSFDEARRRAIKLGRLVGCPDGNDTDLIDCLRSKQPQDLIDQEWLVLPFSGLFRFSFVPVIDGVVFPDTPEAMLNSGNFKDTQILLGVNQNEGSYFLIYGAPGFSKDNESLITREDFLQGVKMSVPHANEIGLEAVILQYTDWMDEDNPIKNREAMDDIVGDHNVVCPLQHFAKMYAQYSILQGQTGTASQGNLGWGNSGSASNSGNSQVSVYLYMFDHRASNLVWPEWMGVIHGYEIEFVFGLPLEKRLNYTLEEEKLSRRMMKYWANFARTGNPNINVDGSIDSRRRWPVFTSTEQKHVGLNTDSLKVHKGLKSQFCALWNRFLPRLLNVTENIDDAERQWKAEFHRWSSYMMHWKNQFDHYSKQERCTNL
# Cholinesterase [6] = target: T6, Cholinesterase (Equus caballus, UniProt P81908); experiment: Inhibition of equine serum BuChE using butyrylthiocholine iodide as substrate preincubated for 5 mins followed by substrate addition and measured for 2 mins by spectrophotometric based Ellman's method
# T6 sequence (P81908 whole entry): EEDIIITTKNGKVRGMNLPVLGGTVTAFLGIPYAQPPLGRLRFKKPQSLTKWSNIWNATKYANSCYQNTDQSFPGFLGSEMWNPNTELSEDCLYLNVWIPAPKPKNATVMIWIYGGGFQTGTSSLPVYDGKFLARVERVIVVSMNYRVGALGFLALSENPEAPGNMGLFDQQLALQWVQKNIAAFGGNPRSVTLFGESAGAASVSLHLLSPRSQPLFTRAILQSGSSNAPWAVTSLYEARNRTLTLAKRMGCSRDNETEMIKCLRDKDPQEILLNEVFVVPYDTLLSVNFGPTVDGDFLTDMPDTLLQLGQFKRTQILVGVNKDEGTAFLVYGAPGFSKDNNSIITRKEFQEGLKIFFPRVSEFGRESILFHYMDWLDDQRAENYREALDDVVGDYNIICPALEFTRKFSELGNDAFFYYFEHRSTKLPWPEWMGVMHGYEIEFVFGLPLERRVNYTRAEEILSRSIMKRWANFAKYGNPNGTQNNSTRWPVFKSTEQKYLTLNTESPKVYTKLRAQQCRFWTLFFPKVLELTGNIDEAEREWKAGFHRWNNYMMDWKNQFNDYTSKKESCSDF
# [7] = target: Microtubule-associated protein tau (Homo sapiens) (UniProt P10636); experiment: Inhibition of tau aggregation (unknown origin) at 20 uM for 72 hrs by thioflavin S based fluorescence analysis
# Acetylcholinesterase [8] = target: T2, Acetylcholinesterase; experiment: Inhibition of recombinant human AChE using acetylthiocholine iodide as substrate preincubated for 5 mins followed by substrate addition by Ellman's method
# Cholinesterase [9] = target: T3, Cholinesterase; experiment: Inhibition of recombinant human BuChE using butyrylthiocholine iodide as substrate preincubated for 5 mins followed by substrate addition by Ellman's method
# HepG2 = experiment: Cytotoxicity against human HepG2 cells assessed as reduction in cell viability for 24 hrs by MTT assay; type: functional, cell-based; conditions: HepG2, 24 h
# SH-SY5Y = experiment: Cytotoxicity against human SH-SY5Y cells assessed as reduction in cell viability for 24 hrs by MTT assay; type: functional, cell-based
# Acetylcholinesterase [10] = target: T5, Acetylcholinesterase; experiment: Inhibition of Electrophorus electricus AchE using acetylthiocholine iodide as substrate preincubated for 15 mins followed by substrate addition and measured for 6 mins by DTNB reagent based Ellman's method
# [11] = target: Fatty-acid amide hydrolase 1 (Homo sapiens, UniProt O00519); experiment: Inhibition of FAAH (unknown origin) using 7-amino-4-methylcoumarin-arachidonamide as substrate preincubated for 5 mins followed by substrate addition and measured after 30 mins by fluorescence based assay
# Fatty-acid amide hydrolase 1, sequence (O00519 whole entry): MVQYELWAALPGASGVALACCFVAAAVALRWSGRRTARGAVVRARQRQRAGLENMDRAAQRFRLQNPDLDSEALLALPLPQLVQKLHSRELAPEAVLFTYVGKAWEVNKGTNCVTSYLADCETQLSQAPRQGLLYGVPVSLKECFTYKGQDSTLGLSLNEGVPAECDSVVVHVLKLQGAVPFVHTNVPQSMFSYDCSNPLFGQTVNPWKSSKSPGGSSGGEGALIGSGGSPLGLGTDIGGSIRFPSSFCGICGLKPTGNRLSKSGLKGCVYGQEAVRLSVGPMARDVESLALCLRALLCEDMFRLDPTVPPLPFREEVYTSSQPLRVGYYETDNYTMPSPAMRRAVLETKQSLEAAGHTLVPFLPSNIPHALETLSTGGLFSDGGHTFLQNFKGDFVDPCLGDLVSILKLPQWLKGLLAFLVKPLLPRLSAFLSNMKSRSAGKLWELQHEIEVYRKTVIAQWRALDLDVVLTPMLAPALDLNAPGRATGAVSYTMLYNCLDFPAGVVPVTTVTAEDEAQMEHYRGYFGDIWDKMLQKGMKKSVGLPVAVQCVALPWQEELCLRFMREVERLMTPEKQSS
# Acetylcholinesterase [12] = target: T2, Acetylcholinesterase; experiment: Inhibition of human AChE using acetylthiocholine iodide as substrate by Ellman's method
# [13] = target: 72 kDa type IV collagenase (Homo sapiens, UniProt P08253); experiment: Inhibition of MMP-2 (unknown origin) by Fluorometric analysis
# 72 kDa type IV collagenase, sequence (P08253 whole entry): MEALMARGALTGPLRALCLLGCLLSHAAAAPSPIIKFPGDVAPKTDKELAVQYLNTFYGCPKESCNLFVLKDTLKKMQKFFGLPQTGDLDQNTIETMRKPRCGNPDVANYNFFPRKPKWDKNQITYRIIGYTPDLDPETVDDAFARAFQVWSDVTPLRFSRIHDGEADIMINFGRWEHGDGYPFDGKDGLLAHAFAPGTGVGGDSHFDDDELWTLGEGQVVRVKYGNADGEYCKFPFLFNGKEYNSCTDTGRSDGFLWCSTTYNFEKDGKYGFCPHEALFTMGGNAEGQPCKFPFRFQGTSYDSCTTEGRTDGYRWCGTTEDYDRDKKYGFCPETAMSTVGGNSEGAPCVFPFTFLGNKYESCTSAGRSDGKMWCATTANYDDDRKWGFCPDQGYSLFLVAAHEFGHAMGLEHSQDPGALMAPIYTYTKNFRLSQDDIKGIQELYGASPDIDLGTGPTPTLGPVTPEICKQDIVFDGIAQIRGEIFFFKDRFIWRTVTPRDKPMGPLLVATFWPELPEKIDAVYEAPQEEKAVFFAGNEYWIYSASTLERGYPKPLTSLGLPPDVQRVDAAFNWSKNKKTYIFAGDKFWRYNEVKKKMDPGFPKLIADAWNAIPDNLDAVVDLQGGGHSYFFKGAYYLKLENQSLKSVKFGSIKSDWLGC
# Homo sapiens = species: Homo sapiens; experiment: Selectivity index, ratio of IC50 for inhibition of human AChE to IC50 for inhibition of human BuChE
# [14] = target: T1, Amyloid-beta precursor protein; experiment: Inhibition of self-induced amyloid beta (1 to 42) (unknown origin) aggregation by Thioflavin T based fluorometric assay
# [15] = target: T7, Gamma-secretase (Homo sapiens) (UniProt Q96BI3+Q9NZ42+Q8WW43+P49768+Q92542+P49810); experiment: Inhibition of gamma secretase in human H4 cells expressing human wild type APP assessed as reduction in amyloid beta 1-40 level at 100 uM for 12 hrs by ELISA; type: cell-based
# [16] = target: T7, Gamma-secretase (Homo sapiens); experiment: Inhibition of gamma secretase in human H4 cells expressing human wild type APP assessed as reduction in amyloid beta 1-42 level at 100 uM for 12 hrs by ELISA; type: cell-based
# Acetylcholinesterase [17] = target: T2, Acetylcholinesterase; experiment: Inhibition of recombinant human AChE using acetylthiocholine as substrate by Ellman's method
# Acetylcholinesterase [18] = target: T2, Acetylcholinesterase; experiment: Inhibition of AChE (unknown origin) by spectrophotometric based Ellman's method
# Cholinesterase [19] = target: T3, Cholinesterase; experiment: Inhibition of BuChE (unknown origin) by spectrophotometric based Ellman's method
# Acetylcholinesterase [20] = target: T5, Acetylcholinesterase; experiment: Inhibition of Electrophorus electricus AchE using acetylthiocholine iodide as substrate preincubated for 5 mins followed by substrate addition and measured after 5 mins by Ellman's method
# Cholinesterase [21] = target: T6, Cholinesterase; experiment: Inhibition of equine serum BuChE using butyrylthiocholine iodide as substrate preincubated for 5 mins followed by substrate addition and measured after 5 mins by Ellman's method
# Acetylcholinesterase [22] = target: T5, Acetylcholinesterase; experiment: Inhibition of electric eel AChE using acetylthiocholine iodide as substrate by spectrophotometric based Ellman's method
# Cholinesterase [23] = target: T6, Cholinesterase; experiment: Inhibition of horse serum BuChE using butyrylthiocholine chloride as substrate by spectrophotometric based Ellman's method
# Acetylcholinesterase [24] = target: T2, Acetylcholinesterase; experiment: Inhibition of AChE (unknown origin) using acetylthiocholine iodide as substrate preincubated for 45 mins followed by substrate addition by DTNB reagent based Ellman's method
# [25] = Antioxidant activity assessed as DPPH radical scavenging activity incubated for 30 mins by DPPH assay; type: functional
# [26] = Antioxidant activity assessed as NO radical scavenging activity incubated for 150 mins in presence of sodium nitroprusside by griess reagent based assay; type: functional
# Beta-secretase 1 [27] = target: T4, Beta-secretase 1; experiment: Inhibition of BACE-1 (unknown origin)
# [28] = target: T1, Amyloid-beta precursor protein; experiment: Inhibition of amyloid beta (1 to 42) (unknown origin) self aggregation at 100 uM and measured after 24 hrs by Thioflavin T based fluorometric assay
# [29] = target: T1, Amyloid-beta precursor protein; experiment: Inhibition of self induced amyloid beta (1 to 42) (unknown origin) aggregation incubated for 24 hrs by Thioflavin T based fluorometric assay
# T1 sequence (P05067 whole entry): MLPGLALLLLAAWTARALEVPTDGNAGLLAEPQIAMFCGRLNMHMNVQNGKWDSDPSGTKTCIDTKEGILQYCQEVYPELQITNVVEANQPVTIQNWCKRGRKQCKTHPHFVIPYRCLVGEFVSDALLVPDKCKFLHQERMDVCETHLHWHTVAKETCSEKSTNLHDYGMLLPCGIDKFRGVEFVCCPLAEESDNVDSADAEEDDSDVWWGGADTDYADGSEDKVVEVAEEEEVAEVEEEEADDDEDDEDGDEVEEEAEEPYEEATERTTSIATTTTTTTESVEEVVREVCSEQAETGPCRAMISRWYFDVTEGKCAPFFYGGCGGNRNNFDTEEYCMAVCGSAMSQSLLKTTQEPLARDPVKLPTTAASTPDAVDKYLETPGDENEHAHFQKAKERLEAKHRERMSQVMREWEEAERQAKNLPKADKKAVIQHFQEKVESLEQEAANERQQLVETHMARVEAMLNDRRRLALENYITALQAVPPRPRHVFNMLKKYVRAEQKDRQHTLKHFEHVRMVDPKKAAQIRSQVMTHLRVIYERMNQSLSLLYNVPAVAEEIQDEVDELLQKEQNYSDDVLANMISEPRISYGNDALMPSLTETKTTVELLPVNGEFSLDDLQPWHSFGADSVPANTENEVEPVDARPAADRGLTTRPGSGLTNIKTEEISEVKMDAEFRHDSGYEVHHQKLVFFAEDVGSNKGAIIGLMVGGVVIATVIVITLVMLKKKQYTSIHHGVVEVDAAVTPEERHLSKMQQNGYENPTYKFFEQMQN
smiles,measurement,setting,value
O=C(CCN1CCN(Cc2ccccc2)CC1)Nc1ccc2nc3n(c(=O)c2c1)CCC3,IC50,[1],9.26 µM
same,IC50,Acetylcholinesterase [2],3.29 µM
same,inhibition,Cholinesterase [3],45.3%
same,IC50,Beta-secretase 1 [4],0.129 µM
c1ccc(C[n+]2ccc(-c3nc4ccccc4s3)cc2)cc1,IC50,Acetylcholinesterase [5],0.014 µM
same,IC50,Cholinesterase [6],0.182 µM
CC1=C[C@H]2c3c(O)cc(-c4cc5ccc(O)cc5o4)cc3O[C@@]3(c4ccc(O)cc4O)Oc4cc(O)ccc4[C@H](C1)[C@@H]23,inhibition,[7],37.3%
COc1ccc2nc3c(c(N)c2c1)C1CC=CC(C3)C1 (configuration not stated),IC50,Acetylcholinesterase [8],2.63 µM
same,IC50,Cholinesterase [9],3.76 µM
same,IC50,HepG2,14.9 µM
same,IC50,SH-SY5Y,17.8 µM
CCCCCCCNC(=O)Oc1cccc(CN(C)CCCCCOc2ccc3[nH]c(=O)ccc3c2)c1,IC50,Acetylcholinesterase [10],0.39 µM
same,IC50,[11],0.83 µM
O=c1cc(/N=N/N=P(CCP(=N/N=N/c2cc(=O)oc3ccccc23)(c2ccccc2)c2ccccc2)(c2ccccc2)c2ccccc2)c2ccccc2o1,IC50,Acetylcholinesterase [12],0.035 µM
same,IC50,[13],441 µM
same,Ratio IC50,Homo sapiens,3.81
same,IC50,[14],338 µM
O=S(=O)(NC1C2CC3CC(C2)CC1C3)c1cccs1 (configuration not stated),inhibition,[15],10%
same,inhibition,[16],22%
Clc1ccc2c(NCCCNCC34CC5CC(CC(C5)C3)C4)ccnc2c1,IC50,Acetylcholinesterase [17],0.5 µM
O=C(OC[C@H]1O[C@@H](OC(=O)c2cc(O)c(O)c(O)c2)[C@H](OC(=O)c2cc(O)c(O)c(O)c2)[C@@H](OC(=O)c2cc(O)c(O)c(O)c2)[C@@H]1O)c1cc(O)c(O)c(O)c1,IC50,Acetylcholinesterase [18],11.9 µM
same,IC50,Cholinesterase [19],18.3 µM
CCCN1CCN(c2ncc(CCN(C)CCCc3ccccc3)s2)CC1,IC50,Acetylcholinesterase [20],14 µM
same,IC50,Cholinesterase [21],14.6 µM
O=C(N/N=C/Nc1c2c(nc3ccccc13)CCCC2)C12CC3CC(CC(C3)C1)C2,IC50,Acetylcholinesterase [22],6.77 µM
same,IC50,Cholinesterase [23],0.615 µM
CC1(C)CCCC2(C)OC(=O)C=C12 (racemic) [DIHYDROACTINIDIOLIDE],IC50,Acetylcholinesterase [24],0.03 µM
same,IC50,[25],0.05 µM
same,IC50,[26],50 µM
O=C(OC1O[C@@H]2COC(=O)c3cc(O)c(O)c(O)c3-c3c(cc(O)c(O)c3O)C(=O)O[C@H]2[C@H](OC(=O)c2cc(O)c(O)c(O)c2)[C@H]1OC(=O)c1cc(O)c(O)c(O)c1)c1cc(O)c(O)c(O)c1 (some centres not stated) [TELLIMAGRANDIN II],IC50,Beta-secretase 1 [27],20.2 µM
CCOC(=O)C(Cc1cn(-c2ccccc2)nn1)(Cc1cn(-c2ccccc2)nn1)NC(C)=O,inhibition,[28],96.9%
same,IC50,[29],8.06 µM
